Data on 24 compounds can be found in patent US20030229053A1, “Compounds and methods for the treatment or prevention of flavivirus infections” (Shire BioChem Inc., priority 2001, published 2003).

In general, IC50 refers to the point on the concentration scale where inhibition reaches its midpoint.

Sequence of HCV NS5B RNA-dependent RNA polymerase (P26663 2420-3010 limits assumed): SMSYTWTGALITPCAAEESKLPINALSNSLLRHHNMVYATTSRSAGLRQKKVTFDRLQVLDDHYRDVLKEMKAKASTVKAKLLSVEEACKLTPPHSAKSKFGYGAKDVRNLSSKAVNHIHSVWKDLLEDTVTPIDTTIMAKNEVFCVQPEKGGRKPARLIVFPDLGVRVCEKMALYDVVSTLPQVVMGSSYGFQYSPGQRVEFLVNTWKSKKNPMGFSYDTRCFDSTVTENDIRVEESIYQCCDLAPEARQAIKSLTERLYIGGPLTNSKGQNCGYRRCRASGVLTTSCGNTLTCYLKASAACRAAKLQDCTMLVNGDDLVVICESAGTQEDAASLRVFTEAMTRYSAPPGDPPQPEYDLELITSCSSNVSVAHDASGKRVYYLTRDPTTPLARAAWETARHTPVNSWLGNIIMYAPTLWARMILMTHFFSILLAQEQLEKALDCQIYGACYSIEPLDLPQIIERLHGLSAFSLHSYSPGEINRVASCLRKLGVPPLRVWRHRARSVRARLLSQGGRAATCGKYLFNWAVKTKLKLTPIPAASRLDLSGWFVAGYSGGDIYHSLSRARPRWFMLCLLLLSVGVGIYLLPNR

One assay has as its target HCV NS5B RNA-dependent RNA polymerase (Hepatitis C virus genotype 1b, UniProt P26663). Put plainly: In vitro RNA-dependent RNA polymerase assay (Assay 1), polyA/oligo dT, TCA precipitation. It is filed as biochemical.
Settings: not given
The protocol:
Purification of Recombinant NS5B Using Fast Protein Liquid Chromatography (FPLC):
Soluble NS5B protein in the S3 fraction was diluted to lower the NaCl concentration to 300 mM, then it incubated batchwise with DEAE sepharose beads (Amersham-Pharmacia) for 2 hrs at 4° C., as described by Behrens et al. (1996). Unbound material was cleared by centrifugation for 15 min at 4° C., at 25,000 rpm using a SW41 rotor (Beckman). The supernatant was further diluted to lower the NaCl concentration to 200 mM and subsequently loaded, with a flow rate of 1 ml/min, on a 5 ml HiTrap® heparin column (Amersham-Pharmacia) connected to an FPLC® system (Amersham-Pharmacia). Bound proteins were eluted in 1 ml fractions, using a continuous NaCl gradient of 0.2 to 1 M, over a 25 ml volume. NS5B-containing fractions were identified by sodium dodecyl sulfate polyacrylamide gel electrophoresis (SDS-PAGE), followed by western blotting using the anti-NS5B antiserum at a dilution of 1:2000. Positive fractions were pooled and the elution buffer was exchanged against a 50 mM NaPO4 pH 7.0, 20% glycerol, 0.5% triton X-100 and 10 mM DTT, using a PD-10 column (Amersham-Pharmacia). The sample was then loaded onto a 1 ml HiTrap® SP column (Amersham-Pharmacia), with a flow rate of 0.1 ml/min. Bound proteins were eluted using a continuous 0 to 1 M NaCl gradient over a 15 ml volume. Eluted fractions were analyzed by SDS-PAGE and western blotting. Alternatively, proteins were visualized, following SDS-PAGE, by silver staining using the Silver Stain Plus kit (BioRad) as described by the manufacturer. […]
In vitro RNA-dependent RNA Polymerase Assays Used to Evaluate Biaryl Analogues (Assay 1):
RdRp assays were conducted using the homopolymeric template/primer polyA/oligo dT. All RdRp reactions were performed in a total volume of 50 μl, and in a basic buffer consisting of 20 mM Tris-HCl pH 7.5, 1 mM DTT, 50 mM NaCl, 5 mM MgCl2, 0.5 μCi […] (3000 Ci/mmol), 15 μM cold UTP and 20 U RNasin (Promega). Standard HCV RdRp reactions contained 200 ng of purified NS5B protein. PolyA RNAs (Amersham-Pharmacia) was resuspended at 400 ng/μl. The primer oligodT15 (Canadian life technologies) was diluted to a concentration of […] (7.6 ng/μl). Templates and primers were mixed volume to volume, denatured at 95° C. for 5 min and annealed at 37° C. for 10 min. Following a two hour incubation at 22° C., reactions were stopped by the addition of 100 μg of sonicated salmon sperm DNA (Life Technologies) and 1 ml of 10% trichloroacetic acid-0.5% tetrasodium pyrophosphate (TCA-PPi). Nucleic acids were precipitated at 4° C. for 30 min after which samples were filtered on GF/C glass microfiber filters (Millipore). Membranes were subsequently washed with 25 ml of a 1% TCA-0.1% PPi solution, then air dried. Incorporated radioactivity was quantified using a liquid scintillation counter (1450-Microbeta, Wallac). Results are shown in Table 1, in the column indicated as Assay 1.
The compound `O=C(O)[C@H](Cc1ccccc1)N(Cc1cccc(Br)c1)C(=O)c1ccc(Cl)cc1Br` [compound #36, (2s)-2-[(3-Bromo-benzyl)-(2-bromo-4-chloro-benzoyl)-amino]-3-phenyl-propionic acid] returned an IC50 of less than 5 µM.

In turn, `Cc1cc(Cl)ccc1C(=O)N(Cc1cccc(-c2cc3ccccc3o2)c1)[C@@H](Cc1ccccc1)C(=O)O` [compound #48, (2s)-2-[(3-Benzofuran-2-yl-benzyl)-(4-chloro-2-methyl-benzoyl)-amino]-3-phenyl-propionic acid] came in with a 50% inhibitory concentration (IC50) of less than 5 µM.

With `O=C(O)[C@H](Cc1ccccc1)N(Cc1cccc(F)c1)C(=O)c1ccc(Cl)cc1Cl` [compound #51, (2s)-2-[(2,4-Dichloro-benzoyl)-(3-fluoro-benzyl)-amino]-3-phenyl-propionic acid], the concentration for half-maximal inhibition (IC50) was less than 5 µM.

Still in this assay, the particulars now being: polyA/oligo dT template/primer, 200 ng NS5B, 2 h at 22° C.; read-out: RNA pol Assay 1 IC50 (μm).
For `COc1cc(C)c(S(=O)(=O)N(Cc2ccccc2Br)[C@@H](Cc2ccccc2)C(=O)O)c(C)c1C` [compound #24, (2s)-2-[(2-Bromo-benzyl)-(4-methoxy-2,3,6-trimethyl-benzenesulfonyl)-amino]-3-phenyl-propionic acid], the IC50 was in the range of 5 to 20 µM. As to `Cc1ccc(C(=O)N(Cc2cccc(Br)c2)[C@@H](Cc2ccccc2)C(=O)O)c(C)c1` [compound #28, (2s)-2-[(3-Bromo-benzyl)-(2,4-dimethyl-benzoyl)-amino]-3-phenyl-propionic acid], the half-maximal inhibitory concentration (IC50) was less than 5 µM.

Turning to `Cc1ccc(C(=O)N(Cc2cccc(-c3cc4ccccc4o3)c2)[C@@H](Cc2ccccc2)C(=O)O)c(C)c1` [compound #31, (2s)-2-[(3-Benzofuran-2-yl-benzyl)-(2,4-dimethyl-benzoyl)-amino]-3-phenyl-propionic acid], the 50% inhibitory concentration (IC50) was less than 5 µM. As for `COc1cc(C)c(S(=O)(=O)N(Cc2ccc(-c3cc4ccccc4o3)cc2)[C@@H](Cc2ccc(O)cc2)C(=O)O)c(C)c1C` [compound #32, (2s)-2-[(4-Benzofuran-2-yl-benzyl)-(4-methoxy-2,3,6-trimethyl-benzenesulfonyl)-amino]-3-(4-hydroxy-phenyl)-propionic acid], the IC50 was less than 5 µM. On the same count and under the same terms, the figure for `O=C(O)[C@H](Cc1ccc(O)cc1)N(Cc1ccc(-c2cc3ccccc3o2)cc1)C(=O)c1ccc(Cl)cc1Cl` [compound #33, (2s)-2-[(4-Benzofuran-2-yl-benzyl)-(2,4-dichloro-benzoyl)-amino]-3-(4-hydroxy-phenyl)-propionic acid] is less than 5 µM; for `Cc1cc(Cl)ccc1C(=O)N(Cc1cccc(Br)c1)[C@@H](Cc1ccccc1)C(=O)O` [compound #34, (2s)-2-[(3-Bromo-benzyl)-(4-chloro-2-methyl-benzoyl)-amino]-3-phenyl-propionic acid] it is less than 5 µM; for `O=C(O)[C@H](Cc1ccccc1)N(Cc1cccc(Br)c1)C(=O)c1ccc(Cl)cc1I` [compound #35, (2s)-2-[(3-Bromo-benzyl)-(4-chloro-2-iodo-benzoyl)-amino]-3-phenyl-propionic acid] it is less than 5 µM. `O=C(O)[C@H](Cc1ccccc1)N(Cc1cccc(-c2cc3ccccc3o2)c1)C(=O)Cc1ccc(Cl)cc1Cl` [compound #37, (2s)-2-{(3-Benzofuran-2-yl-benzyl)-[(2,4-dichloro-phenyl)-acetyl]-amino}-3-phenyl-propionic acid]: the IC50 was less than 5 µM. On the same count and under the same terms, the figure for `O=C(O)[C@H](Cc1ccccc1)N(Cc1ccc(-c2cc3ccccc3o2)cc1)c1ccc(Cl)cc1Cl` [compound #38, (2s)-2-[(4-Benzofuran-2-yl-benzyl)-(2,4-dichloro-phenyl)-amino]-3-phenyl-propionic acid] is less than 5 µM. Turning to `O=C(O)[C@H](Cc1ccccc1)N(Cc1ccc2ccccc2c1)C(=O)c1ccc(Cl)cc1Cl` [compound #39, (2s)-2-[(2,4-Dichloro-benzoyl)-naphthalen-2-ylmethyl-amino]-3-phenyl-propionic acid], the half-inhibitory concentration (IC50) is less than 5 µM. On the same count and under the same terms, with `O=C1c2ccccc2C(=O)c2cc(CN(C(=O)c3ccc(Cl)cc3Cl)[C@@H](Cc3ccccc3)C(=O)O)ccc21` [compound #40, (2s)-2-[(2,4-Dichloro-benzoyl)-(9,10-dioxo-9,10-dihydro-anthracen-2-ylmethyl)-amino]-3-phenyl-propionic acid] the figure was less than 5 µM. On the same count and under the same terms, with `O=C(c1cccc(Cl)c1)c1cccc(CN(C(=O)c2ccc(Cl)cc2Cl)[C@@H](Cc2ccccc2)C(=O)O)c1` [compound #41, (2s)-2-[[3-(3-Chloro-benzoyl)-benzyl]-(2,4-dichloro-benzoyl)-amino]-3-phenyl-propionic acid] the figure was less than 5 µM. On the same count and under the same terms, the figure for `O=C(c1cccc(CN(C(=O)c2ccc(Cl)cc2Cl)[C@@H](Cc2ccccc2)C(=O)O)c1)c1ccc(F)cc1F` [compound #42, (2s)-2-{(2,4-Dichloro-benzoyl)-[3-(2,4-difluoro-benzoyl)-benzyl]-amino}-3-phenyl-propionic acid] is less than 5 µM; for `Cc1onc(-c2ccccc2Cl)c1C(=O)c1cccc(CN(C(=O)c2ccc(Cl)cc2Cl)[C@@H](Cc2ccccc2)C(=O)O)c1` [compound #43, (2s)-2-[{3-[3-(2-Chloro-phenyl)-5-methyl-isoxazole-4-carbonyl]-benzyl}-(2,4-dichloro-benzoyl)-amino]-3-phenyl-propionic acid] it is less than 5 µM.

Turning to `O=C(c1cccc(CN(C(=O)c2ccc(Cl)cc2Cl)[C@@H](Cc2ccccc2)C(=O)O)c1)c1ccc(Cl)cc1Cl` [compound #44, (2s)-2-{(2,4-Dichloro-benzoyl)-[3-(2,4-dichloro-benzoyl)-benzyl]-amino}-3-phenyl-propionic acid], the IC50 is less than 5 µM. Still for that read-out and setting: the figure for `O=C(O)[C@H](Cc1ccccc1)N(Cc1cccc(-c2nc3ccccc3o2)c1)C(=O)c1ccc(Cl)cc1Cl` [compound #45, (2s)-2-[(3-Benzooxazol-2-yl-benzyl)-(2,4-dichloro-benzoyl)-amino]-3-phenyl-propionic acid] is less than 5 µM. On the same count and under the same terms, with `CCc1cc(Cl)ccc1C(=O)N(Cc1cccc(Br)c1)[C@@H](Cc1ccccc1)C(=O)O` [compound #46, (2s)-2-[(3-Bromo-benzyl)-(4-chloro-2-ethyl-benzoyl)-amino]-3-phenyl-propionic acid] the figure was less than 5 µM; with `O=C(O)[C@H](CC1CCCCC1)N(Cc1ccc(-c2cc3ccccc3o2)cc1)C(=O)c1ccc(Cl)cc1Cl` [compound #47, (2s)-2-[(4-Benzofuran-2-yl-benzyl)-(2,4-dichloro-benzoyl)-amino]-3-cyclohexyl-propionic acid], less than 5 µM. The same measure, in the same setting: with `O=C(O)[C@H](Cc1ccccc1)N(Cc1cccc(-c2cc3ccccc3o2)c1)C(=O)c1ccc(Cl)cc1Br` [compound #49, (2s)-2-[(3-Benzofuran-2-yl-benzyl)-(2-bromo-4-chloro-benzoyl)-amino]-3-phenyl-propionic acid] the figure was less than 5 µM; with `C=Cc1cc(Cl)ccc1C(=O)N(Cc1cccc(Br)c1)[C@@H](Cc1ccccc1)C(=O)O` [compound #50, (2s)-2-[(3-Bromo-benzyl)-(4-chloro-2-vinyl-benzoyl)-amino]-3-phenyl-propionic acid], less than 5 µM; with `O=C(O)[C@H](Cc1ccccc1)N(Cc1cccc(Cl)c1)C(=O)c1ccc(Cl)cc1Cl` [compound #52, (2s)-2-[(3-Chloro-benzyl)-(2,4-dichloro-benzoyl)-amino]-3-phenyl-propionic acid], less than 5 µM.
